Patent publication US20060014709A1, “Drug or cosmetic” (priority 2002, published 2006)
Where “and” joins values, the source holds several entries; their conditions need not be identical. Equal values may be shown once. Entries after “also recorded” stand apart in the source; their conditions may differ. Marks after values point to notes of the source that are not given here.

Key:
Assay type in all cases: in vivo
[1] = test system: male SD rats, obstruction-released kidney (glomerular lesions and tubulointerstitial lesions); experiment: Obstruction release model after complete obstruction of unilateral ureter for 14 days (Example 2-1); set-up: key to Tubulointerstitial lesions: level of lesions (quality): summed lesion score: + = 1, ++ = 2, +++ = 3 points; conditions: rat
Text: (§1) That is, the rat was laparotomized under anesthesia with ether and left ureter was ligated with 7-0 Nylon at the height of the margin of lower pole of kidney to close the abdomen. On the 14th day after obstruction, the obstruction was released and urinary passage was reconstructed using a cuff. Thus, after 14 days, the part of ligated obstructed ureter was resected, a polyethylene tube of 25 gages (manufactured by Nippon Sherwood) was used as a cuff and inserted into and retained at the lumen from the cut end of the lower normal ureter, then the cuff was also retained in the expanded upper ureter and each of them was ligated and fixed by 7-0 Nylon to reconstruct the urinary passage. At the same time, the right kidney at the opposite side was excised. After the release of the obstruction, body weight was measured, blood was drawn on the 2nd day, 5th day and 7th day from the release to measure serum creatinine, then the rat was killed under anesthesia and the left obstruction-released kidney was excised.
With regard to the excised kidney, there were carried out measurements of weight of the kidney, creatinine concentration mg/dl in plasma as an indicator of kidney function and pathological test for the kidney, and also leukocyte cells which infiltrate the obstruction-released kidney were immunopathologically studied with cell surface markers for ED1 macrophages, CD11b (ED8) positive macrophages and CD5 positive lymphocytes. A number of positive cells was expressed as a number of cells per glomerulus from measured numbers of positive cells in five glomeruli, and for a number in tubulointerstitial tissue, it was expressed by the total number of cells existing in five fields of 200×magnification. For macrophages, a number of CD11b positive cells existing in glomerulus was considered as a number of CD11b^+CD2^+ macrophages and a case of existing not less than one positive cell per glomerulus was considered as positive (+). In the tubulointerstitial tissue, a number of […] 60 CD11b positive cells was considered as positive (+), or a case of CD11b^−CD2^+ macrophages dominantly increasing. Scoring of evaluation of tubulointerstitial lesions was as follows: + gets 1-point as a light lesion; ++ gets 2-point as a moderate lesion; and +++ gets3-point as a severe lesion. For glomerular lesions, when a proportion of lesioned glomeruli was decreased to not more than 40%, and for tubulointerstitial lesions, when a score of the lesions was not more than 4, it was considered as improved.
For glomerular lesions, by counting glomeruli causing thickening of Bowman's capsule wall and glomerular hyalinosis, a proportion of glomeruli having lesions was calculated. For tubulointerstitial lesions, by qualifying hyperplasia of tubular basement membrane and interstitial fibrosis, levels of the lesions were represented.
(§2) An in vivo biological test was carried out for the γ-lactone derivative according to the present invention using this model. Bulk powder of a test compound was dissolved in sterile physiological saline together with gum arabic, and concentrations of the test compound and gum arabic were adjusted to 30 mg/mL and 5% respectively. The preparation was administered orally or subcutaneously injected at the dose of 30 mg/kg or 3 mg/kg every day. The administration was conducted for the total 21 days of the obstructed period for 14 days and after release of the obstruction for 7 days.
For test groups, a group administered single compound group, a group administered both compound group and a control group administered solution of gum arabic were set up and compared for renal functions and morphological evaluations, as well as numbers of ED1, CD5, CD11b positive cells by means of immunopathology.

[2] = test system: male SD rats, obstruction-released kidney (glomerular lesions and tubulointerstitial lesions); experiment: Obstruction release model after complete obstruction of unilateral ureter for 14 days (Example 2-2); set-up: key to Tubulointerstitial lesions: level of lesions: summed lesion score; + = 1, ++ = 2, +++ = 3; ≤6.5 improved; conditions: rat, 30 mg/kg subcutaneously
Text: as §1, §2
For cell surface markers of leukocyte cells which infiltrate the obstruction-released kidney, ED1, CD11b (ED8), CD5 and CD2 were used. […] For CD5^+, a number of not less than 20 per glomerulus was considered as positive. For glomerular lesions, which was characterized by Bowman's capsule wall, glomerular hyalinosis, dilation of urinary space pole and hypertrophy of parietal cells, 50 glomeruli were evaluated to obtain a proportion of pathologic glomeruli. For tubulointerstitial lesions, levels of the lesions were represented by qualifying hyperplasia of tubular basement membrane, tubular enlargement and atrophy and interstitial fibrosis. Scoring was as follows: + gets 1-point as a light lesion; ++ gets 2-point as a moderate lesion; and +++ gets 3-point as a severe lesion. Levels of cell infiltration were evaluated qualitatively according to the above three-point scale. For glomerular lesions, when a proportion of lesioned glomeruli was decreased to not more than 20%, and for tubulointerstitial lesions, when a score of the lesions was not more than 6.5, it was considered as improved.
Numbers of cells positive for CD11b (ED8), CD2 and CD5 were compared by means of immunopathology, and CD11b^+CD2^+ macrophages were considered as regeneration-promoting macrophages in glomeruli and CD11b^−CD2^+CD5+ macrophages were considered as regeneration-promoting macrophages to tubulointerstitial lesions, and herewith, it was estimated whether each cell group is quantitatively dominant or not.

[3] = test system: male SDT rats (spontaneously type II diabetes model), complete skin-excised wounds; experiment: Complete skin-excised model, wound healing; conditions: SDT rat, 10 mg/kg subcutaneously every day
Text: Using male SDT rats of 28-30 weeks age, which were a spontaneously type II diabetes model, promoting effect on repair and regeneration in wound healing after complete skin excision were examined according to a partially modified method of Breitbout AS et al. (Ann Plast Surg 1999, 43: 632). That is, an animal was shaved at its back under anesthesia with ether, and skin in 2×2 cm size was excised together with panniculus carnosus in same size to make two complete skin-excised wounds per animal.
Healings of the wounds were observed on the 1st day, 4th day, 7th day, 12h day, 15th day, 21st day and 28th day from the operation. An area of the wounds was obtained as the product of the average vertical length and the average horizontal length which were measured along with a direction of the longest part in the wound.
A test compound was dissolved in sterile physiological saline together with gum arabic. Concentrations of the test compound and gum arabic were adjusted to 30 mg/mL and 5% respectively. The preparation was subcutaneously injected at the dose of 10 mg/kg every day. The administration was started on 6 days before the operation and continued to 28 days after the operation.

[4] = 30 mg/kg subcutaneously every day for 21 days, one value per animal, 30 mg/kg

C[C@@H](OC(=O)[C@@]1(Oc2ccc(F)cc2)CCC(=O)O1)c1ccc2ccccc2c1 [compound (II-1), (R)-1-naphthalen-2-ylethyl (R)-2-(4-fluorophenoxy)-5-oxotetrahydrofuran-2-carboxylate] was tested, and the “cases with increased regeneration-promoting CD11b^+CD2^+ macrophages to glomerular lesions” value ([1]; 30 mg/kg subcutaneously) was “all five cases”, the “cases with increased regeneration-promoting CD11b^−CD2^+ macrophages to tubulointerstitial lesions” value ([1]; 30 mg/kg subcutaneously) was “four of five cases” and the “pathological improvement of glomerular lesions (cases)” value ([1]; 30 mg/kg subcutaneously) was “four of five cases”. The “pathological improvement of tubulointerstitial lesions (cases)” value ([1]; 30 mg/kg subcutaneously) was “no tubulointerstitial lesion was improved”, the “Regeneration CD11b^+CD2^+ macrophages to glomerular lesions, Determination: increase = +” value ([1]; 30 mg/kg subcutaneously every day for 21 days, one value per animal) was “+ (a case of existing not less than one positive cell per glomerulus was considered as positive (+))” and the “Coincidence of two regeneration macrophages being positive” value [1, 4] was “Coincident; also recorded: Not coincident”. For the same molecule, the “Glomerular lesions: proportion of lesioned glomeruli (%)” value [1, 4] was 10% and 14% and 22% and 57% and 23%, the “Number of regeneration CD11b^+CD2^+ macrophages to glomerular lesions: number of positive cells per glomerulus” value [1, 4] was 1.2 cells per glomerulus and 1.7 cells per glomerulus and 1.1 cells per glomerulus and 2.8 cells per glomerulus and 2.0 cells per glomerulus and the “Number of regeneration CD11b^−CD2^+ macrophages to tubulointerstitial lesions: number of positive cells (CD11b) in five fields of 200× magnification” value [1, 4] was 39 cells in five fields of 200× m and 49 cells in five fields of 200× m and 15 cells in five fields of 200× m and 65 cells in five fields of 200× m and 26 cells in five fields of 200× m. For the same molecule, the “Regeneration CD11b^−CD2^+ macrophages to tubulointerstitial lesions, Determination: increase +” value [1, 4] was “+ (a number of not more than 60 CD11b positive cells was considered as positive (+))”, the Serum creatinine [1, 4] was 2.6 mg/dl and 1.7 mg/dl (2×) and 2.0 mg/dl and 1.8 mg/dl and the “Tubulointerstitial lesions: level of lesions (quality)” value [1, 4] was 7.5 and 9.0 (2×) and 8.0 and 6.5. For the same molecule, the “cases in which regeneration-promoting CD11b^+CD2^+ macrophages were predominant in glomeruli” value [2] was “all five cases”, the “cases in which regeneration-promoting CD11b^−CD2^+CD5+ macrophages were predominant in tubulointerstitial lesions” value [2] was “negative in tubulointerstitial lesions in all cases” and the “pathological improvement of glomerular lesions (cases)” value [2] was “only one case”. The “pathological improvement of tubulointerstitial lesions (cases)” value [2] was “all five cases”, the “Regeneration macrophages to glomerular lesions, Determination Increase +” value ([2]; one value per animal) was “+ (a case of existing not less than one positive cell per glomerulus was considered as positive (+))” and the “Degree of cell infiltration” value ([2]; one value per animal, 30 mg/kg) was “+++”. The “Number of regeneration CD11b^+CD2^+ macrophages to glomerular lesions: number of positive cells per glomerulus CD11b^+CD2^+” value ([2]; one value per animal, 30 mg/kg) was 1.2 cells per glomerulus and 1.7 cells per glomerulus and 1.1 cells per glomerulus and 2.8 cells per glomerulus and 2.0 cells per glomerulus, the “Number of regeneration CD11b^−CD2^+CD5^+ macrophages to tubulointerstitial lesions: number of positive cells in five fields of 200× magnification, CD5^+” value ([2]; one value per animal, 30 mg/kg) was 6 cells in five fields of 200× m and 9 cells in five fields of 200× m and 3 cells in five fields of 200× m (2×) and 4 cells in five fields of 200× m and the “Number of regeneration CD11b^−CD2^+CD5^+ macrophages to tubulointerstitial lesions: number of positive cells in five fields of 200× magnification, CD11b^+” value ([2]; one value per animal, 30 mg/kg) was 39 cells in five fields of 200× m and 49 cells in five fields of 200× m and 15 cells in five fields of 200× m and 65 cells in five fields of 200× m and 26 cells in five fields of 200× m. For the same molecule, the Serum creatinine ([2]; one value per animal, 30 mg/kg) was 2.6 mg/dl and 1.7 mg/dl (2×) and 2.0 mg/dl and 1.8 mg/dl, the “Tubulointerstitial lesions: level of lesions” value ([2]; one value per animal, 30 mg/kg) was 8.0 (4×) and 6.0 and the “Glomerular lesions: proportion of lesioned glomeruli (%)” value ([2]; one value per animal, 50 glomeruli evaluated, 30 mg/kg) was 16% (2×) and 12% (2×) and 8%. The “Excised wound area (cm^2)” value ([3]; 1st day after complete skin excision) was 3.33 cm^2, the “Excised wound area (cm^2)” value ([3]; 4th day after complete skin excision) was 2.31 cm^2 and the “Excised wound area (cm^2)” value ([3]; 7th day after complete skin excision) was 1.62 cm^2. For the same molecule, the “Excised wound area (cm^2)” value ([3]; 12th day after complete skin excision) was 0.52** cm^2, the “Excised wound area (cm^2)” value ([3]; 15th day after complete skin excision) was 0.55 cm^2 and the “Excised wound area (cm^2)” value ([3]; 21st day after complete skin excision) was 0.44 cm^2. For the same molecule, the “Crust formation/number of wound” value ([3]; 21st day after the operation) was 0/8, the “crust formation on the surface of repaired wounds (in words)” value ([3]; 28th day) was “no crust formation occurred” and the “Excised wound area (cm^2)” value ([3]; 28th day after complete skin excision) was 0.29 cm^2. The “Crust formation/number of wound” value ([3]; 28th day after the operation) was 1/8 and the “promoting effect on wound healing (in words)” value ([3]; versus the control group, 10 mg/kg) was “significant promoting effect on wound healing at 12th day after the operation; also recorded: promoting effect on healing of epidermis”.
